We go through five molecules from US20050004093A1, “Beta-lactamase inhibitor prodrug” (Pfizer Inc, priority 2003, published 2005).

Converted amounts (≈) assume the structure as drawn. Like-named read-outs stand apart in the source and are kept apart here. Some results are limits rather than exact numbers.

The target in data set [1] is T1, BRO-1 β-lactamase, M. catarrhalis 87A1115 (Moraxella catarrhalis, UniProt Q59514).
T1 sequence (Q59514 26-313): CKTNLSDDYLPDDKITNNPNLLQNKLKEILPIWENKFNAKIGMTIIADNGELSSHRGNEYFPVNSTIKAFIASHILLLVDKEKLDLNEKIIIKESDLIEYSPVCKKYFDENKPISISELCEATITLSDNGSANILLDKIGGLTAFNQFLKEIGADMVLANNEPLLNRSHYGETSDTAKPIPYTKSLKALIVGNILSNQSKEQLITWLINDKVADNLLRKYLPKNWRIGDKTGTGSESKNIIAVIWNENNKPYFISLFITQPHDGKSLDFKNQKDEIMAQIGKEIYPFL
The data set can be described thus: biochemical.

Data set [2] can be described thus: in vitro. The protocol:
(§1) The incubation consisted of 990 μl of plasma preincubated for 5 minutes at 37° C. in a 96-well heat block. The incubation was initiated with the addition of 10 gl of a 10 mM stock of compound in 100% methanol. Serial aliquots (100 μl) were removed and transferred to 200 μl of 75/25 acetonitrile/3% perchloric acid at 0, 1, 2, 5, 10, 20, 30, and 60 minutes. The samples were centrifuged, the supernatants transferred to injection vials, and 20 μl was injected onto the HPLC in-line with a LC/MS single quadropole mass spectrometer. The LC/MS system was run in the negative ion mode.

Data set [3] can be described thus: in vitro. Here is the method:
as §1
The source holds these as a separate data set.

Data set [4] has as its target T2, ROB-1 β-lactamase, H. influenzae ATCC43334 (Haemophilus influenzae, UniProt P67918).
T2 sequence (P67918 34-305): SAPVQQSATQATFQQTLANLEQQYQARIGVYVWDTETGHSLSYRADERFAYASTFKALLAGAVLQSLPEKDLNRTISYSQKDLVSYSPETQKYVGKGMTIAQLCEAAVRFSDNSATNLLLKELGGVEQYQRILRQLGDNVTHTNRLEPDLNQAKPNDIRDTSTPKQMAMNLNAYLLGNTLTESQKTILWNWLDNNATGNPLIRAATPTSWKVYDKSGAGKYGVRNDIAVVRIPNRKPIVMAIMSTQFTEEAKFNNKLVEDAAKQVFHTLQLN
The data set can be described thus: biochemical.

The nature of data set [5]: in vitro. The protocol: as §1
The source holds these as a separate data set.

Data set [6] concerns the target T3, Sme-I β-lactamase, Serratia S6 (Serratia marcescens, UniProt P52682).
T3 sequence (P52682 28-294): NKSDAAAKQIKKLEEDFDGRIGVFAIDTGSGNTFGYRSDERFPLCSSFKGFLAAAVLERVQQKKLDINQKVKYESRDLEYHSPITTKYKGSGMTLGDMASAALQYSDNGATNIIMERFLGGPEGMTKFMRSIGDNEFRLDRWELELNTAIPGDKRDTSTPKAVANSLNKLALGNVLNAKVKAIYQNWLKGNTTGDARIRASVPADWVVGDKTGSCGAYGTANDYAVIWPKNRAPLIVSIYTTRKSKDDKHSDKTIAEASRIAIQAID
The data set can be described thus: biochemical.
Source text: Biochemical activity against β-lactamases from other pathogens, including those associated with skin infections:

Data set [7] is described as follows: in vitro. The protocol: as §1
The source holds these as a separate data set.

A short description of data set [8]: in vitro. Here is the method: as §1
This is another data set of the same source.

In data set [9] the target is T4, BRO-2 β-lactamase, M. catarrhalis 87A1178 ATCC43617 (Moraxella catarrhalis, UniProt Q59514).
T4 sequence (Q59514 1-313 D293G): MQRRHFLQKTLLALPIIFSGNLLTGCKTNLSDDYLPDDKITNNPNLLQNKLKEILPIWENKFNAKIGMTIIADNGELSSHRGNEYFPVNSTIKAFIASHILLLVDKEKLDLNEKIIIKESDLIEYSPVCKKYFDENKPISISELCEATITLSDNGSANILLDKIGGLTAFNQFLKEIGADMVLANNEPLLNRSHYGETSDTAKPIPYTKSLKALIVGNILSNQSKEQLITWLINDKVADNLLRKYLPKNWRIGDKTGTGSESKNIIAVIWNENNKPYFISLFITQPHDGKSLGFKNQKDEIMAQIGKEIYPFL
The data set can be described thus: IC50 against β-lactamase in cell extract (colorimetric, chromogenic cephalosporin). The data set is classed as biochemical. Particulars: BRO-2, M. catarrhalis 87A1178 ATCC43617 cell extract.

Data set [10] has as its system Streptococcus pneumoniae (02J1046). Briefly: Gerbil otitis media model. The format is in vivo. The settings on record: single agent, oral, t.i.d. for 2 days, bacterial clearance day 4 post-challenge.
Data set [11] relates to clinical isolates of S. pneumoniae. The data set can be described thus: Susceptibility assay (NCCLS broth microdilution MIC), non-β-lactamase producing species. Particulars: Streptococcus pneumoniae.
Data set [12] deals with Streptococcus pneumoniae (02J1095). The data set can be described thus: Murine pneumonia model. The data set is classed as in vivo. Particulars: single agent, oral, b.i.d. for 2 days, mice, survival day 10 post-challenge.
Data set [13] concerns Staphylococcus aureus (01A0400). The data set can be described thus: Murine systemic infection model. The settings on record: single agent, oral, b.i.d. for 1 day, mice, survival day 4 post-challenge. The format is in vivo.
In data set [14] the test system is Haemophilus influenzae (54A1218). Briefly: Gerbil otitis media model. The data set is classed as in vivo. Particulars: single agent, oral, t.i.d. for 2 days, bacterial clearance day 4 post-challenge.
Data set [15] concerns Streptococcus pneumoniae (02J1095). Briefly: Murine systemic infection model. The data set is classed as in vivo. Particulars: single agent, oral, b.i.d. for 1 day, mice, survival day 4 post-challenge.
Data set [16] relates to Moraxella catarrhalis (87A1115). Briefly: Murine systemic infection model. The data set is classed as in vivo. Particulars: single agent, oral, b.i.d. for 1 day, mice, survival day 4 post-challenge.
Data set [17] can be described thus: Hepatic extraction, rat hepatocytes. The format is in vitro ADME. From the text:
(§2) Based upon this correlation, the rat was used to predict human absorption. […] Thus, oral bioavailability assessments in rats should correlate well with the fraction absorbed in humans.

The conditions of data set [18]: administered orally, rodents, preclinical studies; cited from earlier work.
Data set [19] can be described thus: Hepatic extraction, human hepatocytes. The data set is classed as in vitro ADME.
Source text: as §2

Another data set has as its system esterases. The data set can be described thus: Hydrolysis in the presence of esterases. The data set is classed as in vitro ADME.
Source text: as §2

Consider `O=C(O)[C@H]1/C(=C/CO)O[C@@H]2CC(=O)N21` [Clavulanate, lithium clavulanate], for which the IC50 in data set [1] was 140 nM; in [4] it was 40 nM; in data set [6], 19600 nM; in data set [9] it was 110 nM. Further, the half-life at 100 μM in the data set “in vitro [2]” (rat, plasma) was 3.3 h; in the data set “in vitro [3]” (human, plasma), 2.6 h; in “in vitro [5]” (monkey, plasma), 3.6 h; in “in vitro [7]” (dog, plasma) it was 2.8 h; in the data set “in vitro [8]” (mouse, plasma), more than 4 h.
Take `CC1(C)[C@H](C(=O)[O-])N2C(=O)[C@@H](CO)[C@H]2S1(=O)=O.[Na+]` [Na-HMPAS, 4-Thia-1-azabicyclo [3,2,0]heptane-2-carboxylic acid, 6-(hydroxymethyl)-3,3-dimethyl-7-oxo-,4,4-dioxide, monosodium salt, (2S,5R,6R)]: the 50% inhibitory concentration (IC50) in data set [1] worked out at 143 nM; in data set [4] it was 10 nM; in data set [6], 680 nM; in [9], 320 nM. Also, the half-life at 100 μM in “in vitro [2]” is 3.4 h; in the data set “in vitro [3]”, more than 4 h; in “in vitro [5]”, more than 4 h; in the data set “in vitro [7]”, more than 4 h; in “in vitro [8]”, 3.9 h.
Take `CC1(C)S[C@@H]2[C@H](NC(=O)[C@H](N)c3ccc(O)cc3)C(=O)N2[C@H]1C(=O)O` [Amoxicillin, amoxicillin]: the ED50 in data set [10] is more than 50 mg/kg; in [12] it was less than 100 mg/kg; in [13] it was more than 200 mg/kg; in data set [14] it was more than 50 mg/kg; in data set [15] it was less than 100 mg/kg; in data set [16] it was more than 200 mg/kg. In addition, the MIC lay within 0.0156 to 0.06 µg/mL (≈ 0.0427 to 0.164 µM) in [11] (read-out: Amoxicillin MICs, 12 penicillin-susceptible S. pneumoniae isolates) and 0.03 to 1 µg/mL (≈ 0.0821 to 2.74 µM) in data set [11] (read-out: Amoxicillin MICs, 21 penicillin-intermediate S. pneumoniae). In [11] (read-out: amoxicillin MIC50), the MIC50 worked out at 2 µg/mL (≈ 5.47 µM). For the same molecule, in data set [11] (read-out: amoxicillin MIC90), the MIC90 worked out at 4 µg/mL (≈ 10.9 µM).
Consider `CC1(C)C(C(=O)O)N2C(=O)C(CO)C2S1(=O)=O` (stereo not drawn) [Prodrug 6-β-HMPAS, 6-β-hydroxymethylpenicillanic acid sulfone], for which the hepatic extraction entry in [17] and in data set [19] was “minimal” in each case. The oral absorption result in [18] is “very poorly absorbed”.
`CC1(C)[C@H](C(=O)OCOC(=O)OC2CCOCC2)N2C(=O)[C@@H](CO)[C@H]2S1(=O)=O` [Prodrug 1, 4-Thia-1-azabicyclo[3.2.0]heptane-2-carboxylic acid, 6-(hydroxymethyl)-3,3-dimethyl-7-oxo-,[[[(tetrahydro-2H-pyran-4-yl)oxy]carbonyl]oxy]methyl ester, 4,4-dioxide (2S,5R,6R)]: the melting point worked out at 136 °C. Moreover, the half-life at 100 μM in “in vitro [2]” (rat, plasma) was less than 0.0333 h. The molecule also showed a half-life at 100 μM in the data set “in vitro [3]” (human, plasma) of 0.112 h. The ED50 in [12] is more than 25 mg/kg. The molecule further yielded an ED50 in data set [13] of more than 25 mg/kg. Also, in the data set with esterases, the time to hydrolysis entry is recorded as “within a few minutes”. Moreover, in data set [15], the ED50 is more than 25 mg/kg. In data set [16], this molecule displayed an ED50 of more than 25 mg/kg. In “in vitro [7]” (dog, plasma), this molecule came in with a half-life at 100 μM of 0.167 h. Further, in “in vitro [8]” (mouse, plasma), the half-life at 100 μM was less than 0.0333 h.
